According to patent US12060351B2, “Thiadiazole IRAK4 inhibitors” (Gilead Sciences, Inc., priority 2018, dated 2024):

These molecules were tested on TNFα (assay: IRAK4 Monocyte TNFα Cell Based Assay (LPS-stimulated, TR-FRET TNFα detection)). Conditions: Homo sapiens, Monocyte, human monocytes, LPS-stimulated; Table 2 second part (compounds 33-343); read-out: EC50 MONO TNF HTRF.
Design: species or system human
Description: IRAK4 Monocyte TNFα Cell Based Assay Procedure:
The cell suspension was then plated at a density of 5,000 cells/well onto black 384 well Greiner clear bottom plates. Plates were pre-spotted with test compounds and serially diluted in DMSO where 40 nL/well were delivered using the Echo 550 acoustic liquid dispenser (Labcyte®) for a final DMSO concentration of 0.1%. Plated cells were treated with compound for 1 hour at 37° C. Cells were then stimulated with 50 pg/ml of LPS (Sigma) excluding outside columns of plate used for unstimulated cell control wells. Cells were incubated for an additional 4 hours at 37° C. Cells were then spun out of the media and 5 μl of sample were taken and analyzed for total TNFα content using the TR-FRET Human TNFα detection system (CisBio). This system utilizes two labeled antibodies (cryptate and XL665) that bind to two different epitopes of the TNFα molecule and produce FRET signal proportional to the concentration of TNFα in the sample. Detection antibodies are mixed 50:50 and 5 μL were dispensed into each well. Plates were covered with clear seals and incubated at room temp overnight. […] Percent of control was calculated as follows: % Control=100×(RatioSample−Ratio0% Stimulation)/(Ratio100% Stimulation−Ratio0% Stimulation) where unstimulated cells (0% stimulation) were the negative control and stimulated cells (100% stimulation) were used as the positive control.
Work on `CC(C)Nc1cc(-c2ccc3cc(C#N)cnn23)ncc1-c1nnc(N2C[C@H]3CC[C@@H](C2)[C@@H]3NC(=O)N2CCN(C)CC2)s1` [Example 96, N-((1R,5S,8s)-3-(5-(6-(3-cyanopyrrolo[1,2-b]pyridazin-7-yl)-4-(isopropylamino)pyridin-3-yl)-1,3,4-thiadiazol-2-yl)-3-azabicyclo[3.2.1]octan-8-yl)-4-methylpiperazine-1-carboxamide] yielded an EC50 of 2.3 nM.
`CC(C)Nc1cc(-c2ccc3cc(C#N)cnn23)ncc1-c1nnc(N2C[C@H]3CC[C@@H](C2)[C@@H]3NC(=O)[C@@H](C)O)s1` [Example 90, (R)-N-((1R,5S,8s)-3-(5-(6-(3-cyanopyrrolo[1,2-b]pyridazin-7-yl)-4-(isopropylamino)pyridin-3-yl)-1,3,4-thiadiazol-2-yl)-3-azabicyclo[3.2.1]octan-8-yl)-2-hydroxypropanamide] gave an EC50 of 3.6 nM.
In the case of `CC(C)(O)C(=O)NC12CCC(c3nnc(-c4cnc(-c5ccc6cc(C#N)cnn56)cc4NC4CCOCC4)s3)(CC1)CC2` [Example 337, N-(4-(5-(6-(3-cyanopyrrolo[1,2-b]pyridazin-7-yl)-4-((tetrahydro-2H-pyran-4-yl)amino)pyridin-3-yl)-1,3,4-thiadiazol-2-yl)bicyclo[2.2.2]octan-1-yl)-2-hydroxy-2-methylpropanamide], the EC50 is reported as 3.3 nM.
With `CC(C)Nc1cc(-c2ccc3cc(C#N)cnn23)ncc1-c1nnc(N2CCS(=O)(=O)CC2)s1` [Compound 257, 7-(5-(5-(1,1-dioxidothiomorpholino)-1,3,4-thiadiazol-2-yl)-4-(isopropylamino)pyridin-2-yl)pyrrolo[1,2-b]pyridazine-3-carbonitrile] the EC50 was at least 10000 nM.
With `CC(=O)N[C@@H]1[C@@H]2CC[C@H]1CN(c1nnc(-c3cnc(-c4ccc5cc(C#N)cnn45)cc3N[C@H](C)C#N)s1)C2` [Example 53, N-((1R,5S,8S)-3-(5-(4-(((R)-1-cyanoethyl)amino)-6-(3-cyanopyrrolo[1,2-b]pyridazin-7-yl)pyridin-3-yl)-1,3,4-thiadiazol-2-yl)-3-azabicyclo[3.2.1]octan-8-yl)acetamide] the EC50 was 0.6 nM.
In the case of `CC(C)Nc1cc(-c2ccc3cc(C#N)cnn23)ncc1-c1nnc(N2C[C@H]3CC[C@@H](C2)[C@@H]3NC(=O)N2CCN(C3COC3)CC2)s1` [Example 116, N-((1R,5S,8s)-3-(5-(6-(3-cyanopyrrolo[1,2-b]pyridazin-7-yl)-4-(isopropylamino)pyridin-3-yl)-1,3,4-thiadiazol-2-yl)-3-azabicyclo[3.2.1]octan-8-yl)-4-(oxetan-3-yl)piperazine-1-carboxamide], the EC50 is reported as 4.1 nM.
In the case of `CC(C)Nc1cc(-c2ccc3cc(C#N)cnn23)ncc1-c1nnc([C@H]2C[C@@H](NC(=O)C3CC3)C2)s1` [Example 281, N-((1s,3s)-3-(5-(6-(3-cyanopyrrolo[1,2-b]pyridazin-7-yl)-4-(isopropylamino)pyridin-3-yl)-1,3,4-thiadiazol-2-yl)cyclobutyl)cyclopropanecarboxamide], the EC50 is reported as 8280 nM.
`CC(C)Nc1cc(-c2ccc3cc(C#N)cnn23)ncc1-c1nnc(C2CCNCC2)s1` [Example 129, 7-(4-(isopropylamino)-5-(5-(piperidin-4-yl)-1,3,4-thiadiazol-2-yl)pyridin-2-yl)pyrrolo[1,2-b]pyridazine-3-carbonitrile] showed an EC50 of 21.7 nM.
`CC(=O)NC12CCC(c3nnc(-c4cnc(-c5ccc6cc(C#N)cnn56)cc4N[C@H](C)C#N)s3)(CC1)CC2` [Example 72, (R)-N-(4-(5-(4-((1-cyanoethyl)amino)-6-(3-cyanopyrrolo[1,2-b]pyridazin-7-yl)pyridin-3-yl)-1,3,4-thiadiazol-2-yl)bicyclo[2.2.2]octan-1-yl)acetamide] gave an EC50 of 2.8 nM.
With `CC(=O)N1CCN(C(=O)N[C@@H]2[C@@H]3CC[C@H]2CN(c2nnc(-c4cnc(-c5ccc6cc(C#N)cnn56)cc4NC(C)C)s2)C3)CC1` [Example 104, 4-acetyl-N-((1R,5S,8s)-3-(5-(6-(3-cyanopyrrolo[1,2-b]pyridazin-7-yl)-4-(isopropylamino)pyridin-3-yl)-1,3,4-thiadiazol-2-yl)-3-azabicyclo[3.2.1]octan-8-yl)piperazine-1-carboxamide] the EC50 was 1.7 nM.
`CC(C)Nc1cc(-c2ccc3cc(C#N)cnn23)ncc1-c1nnc([C@H]2C[C@H](NC3COC3)C2)s1` [Example 283, 7-(4-(isopropylamino)-5-(5-((1r,3r)-3-(oxetan-3-ylamino)cyclobutyl)-1,3,4-thiadiazol-2-yl)pyridin-2-yl)pyrrolo[1,2-b]pyridazine-3-carbonitrile] showed an EC50 of 19.9 nM.

Same assay, conditions: Homo sapiens, Monocyte, read-out: EC50 MONO TNF HTRF
Work on `C[C@H](C#N)Nc1cc(-c2ccc3cc(C#N)cnn23)ncc1-c1nnc(N2CC3CC(C2)N3C(=O)C(C)(C)O)s1` [Example 115, 7-(4-(((R)-1-cyanoethyl)amino)-5-(5-(6-(2-hydroxy-2-methylpropanoyl)-3,6-diazabicyclo[3.1.1]heptan-3-yl)-1,3,4-thiadiazol-2-yl)pyridin-2-yl)pyrrolo[1,2-b]pyridazine-3-carbonitrile] yielded an EC50 of 3.5 nM.

Same assay, conditions: human monocytes, LPS-stimulated; Table 2 second part (compounds 33-343); read-out: EC50 MONO TNF HTRF
In the case of `CC1(Nc2cc(-c3ccc4cc(C#N)cnn34)ncc2-c2nnc(N3CC4CC(C3)N4C(=O)C(C)(C)O)s2)COC1` [Example 112, 7-(5-(5-(6-(2-hydroxy-2-methylpropanoyl)-3,6-diazabicyclo[3.1.1]heptan-3-yl)-1,3,4-thiadiazol-2-yl)-4-((3-methyloxetan-3-yl)amino)pyridin-2-yl)pyrrolo[1,2-b]pyridazinc-3-carbonitrile], the EC50 is reported as 13.1 nM.
For `CC(C)Nc1cc(-c2ccc3cc(C#N)cnn23)ncc1-c1nnc(N2CC3CC(C2)N3C(=O)CN=S(C)(C)=O)s1` [Example 107, 7-(5-(5-(6-(2-((dimethyl(oxo)-16-sulfanylidene)amino)acetyl)-3,6-diazabicyclo[3.1.1]heptan-3-yl)-1,3,4-thiadiazol-2-yl)-4-(isopropylamino)pyridin-2-yl)pyrrolo[1,2-b]pyridazine-3-carbonitrile], the EC50 was 18.4 nM.

These molecules were tested against T1, IRAK4 enzyme (Homo sapiens, UniProt Q9NWZ3) (assay: IRAK4 Biochemical Assay (TR-FRET, STK1 KinEASE)). Conditions: 500 μM ATP, Table 2 second part (compounds 33-343), read-out: IC50 IRAK4-HTBS.
T1 construct: purchased Carna Biosciences, Chuo-ku, Kobe, Japan
T1 sequence (Q9NWZ3 1-460): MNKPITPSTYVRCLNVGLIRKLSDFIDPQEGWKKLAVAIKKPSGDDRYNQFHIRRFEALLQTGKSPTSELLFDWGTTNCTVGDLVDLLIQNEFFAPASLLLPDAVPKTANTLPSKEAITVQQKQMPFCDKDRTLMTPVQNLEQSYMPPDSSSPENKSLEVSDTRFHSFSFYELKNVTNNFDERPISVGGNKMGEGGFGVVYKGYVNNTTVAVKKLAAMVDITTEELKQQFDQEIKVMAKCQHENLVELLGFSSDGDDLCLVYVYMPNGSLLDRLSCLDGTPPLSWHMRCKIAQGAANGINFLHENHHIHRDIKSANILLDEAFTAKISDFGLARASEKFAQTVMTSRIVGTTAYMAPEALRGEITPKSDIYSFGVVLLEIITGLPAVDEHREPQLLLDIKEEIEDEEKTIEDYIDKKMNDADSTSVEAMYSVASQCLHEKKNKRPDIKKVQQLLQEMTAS
Description: IRAK4 enzyme (Carna Biosciences, Chuo-ku, Kobe, Japan) activity was measured by detecting phosphorylated peptide substrate formation using an antibody against the phosphorylated peptide substrate. This is a time-resolved fluorescence resonance energy transfer (TR-FRET) immunoassay, based on the STK1 KinEASE Assay (Cisbio, Bedford, Massachusetts). The assay was designed as a simple two-step, endpoint assay (a 5 μl enzyme reaction followed by 5 μl stop and detect Solution) performed in ProxiPlate-384 Plus plates (Perkin Elmer, Waltham, Massachusetts). […] Compounds diluted in DMSO were spotted into 384 well plates using a Labcyte® Echo 550 Liquid Handling System prior to addition of IRAK4 enzyme and peptide substrate. Reaction solutions were delivered using a Multi-Flo (Bio-Tek Instruments). The enzyme and peptide solution was incubated with compound for 15 minutes at room temp before the reaction was initiated by the addition of ATP. The standard 5 μl reaction mixture contained 500 μM ATP, 2 μM peptide (STK1 Peptide), 0.75 nM of IRAK4 in reaction buffer (50 mM HEPES, pH 7.0, 0.02% NaN3, 0.01% BSA, 0.1 mM Orthovanadate, 5 mM MgCl2, 0.025% NP-40, 1 mM DTT). After 120 min of incubation at room temperature, 5 μl of Stop and Detect Solution (1:100 Cryptate labeled anti-phosphorylated peptide antibody solution and 125 nM Tracer in a 50 mM HEPES pH 7.0 detection buffer containing sufficient EDTA) was added. The plate was then further incubated for 60 minutes at room temperature and read on Envision 2103 Multilabeled reader (PerkinElmer) with excitation/emission/FRET emission at 340 nm/615 nm/665 nm, respectively. Fluorescence intensities at 615 nm and 665 nm emission wavelengths were expressed as a ratio (665 nm/615 nm).
In the case of `CC(C)Nc1cc(-c2ccc3cc(C#N)cnn23)ncc1-c1nnc(N2C[C@H]3CC[C@@H](C2)[C@H]3O)s1` [Example 146, 7-(5-(5-((1R,5S,8r)-8-hydroxy-3-azabicyclo[3.2.1]octan-3-yl)-1,3,4-thiadiazol-2-yl)-4-(isopropylamino)pyridin-2-yl)pyrrolo[1,2-b]pyridazine-3-carbonitrile], the IC50 is reported as 0.48 nM.
`CC(C)Nc1cc(-c2ccc3cc(C#N)cnn23)ncc1-c1nnc(N2C[C@H]3CC[C@@H](C2)[C@@H]3O)s1` [Example 154, 7-(5-(5-((1R,5S,8s)-8-hydroxy-3-azabicyclo[3.2.1]octan-3-yl)-1,3,4-thiadiazol-2-yl)-4-(isopropylamino)pyridin-2-yl)pyrrolo[1,2-b]pyridazine-3-carbonitrile] gave an IC50 of 1.57 nM.

Same assay, conditions: IC50 IRAK4-HTBS, 500 μM ATP, Table 2 second part (compounds 33-343)
`CC(C)Nc1cc(-c2ccc3cc(C#N)cnn23)ncc1-c1nnc([C@@H]2CC[C@H]2C(C)(C)O)s1` (racemic) [Example 88, 7-(5-(5-((1,2-trans)-2-(2-hydroxypropan-2-yl)cyclobutyl)-1,3,4-thiadiazol-2-yl)-4-(isopropylamino)pyridin-2-yl)pyrrolo[1,2-b]pyridazine-3-carbonitrile] showed an IC50 of 0.83 nM.
